{"source": "patent EP4417190A1", "about": "“CYCLIC PEPTIDES WITH ANTI-AGING EFFICACY” (Lipotrue, S.L., priority 2023, dated 2024)", "key": {"[1]": {"assay": "MTT assay, toxicity on HDFa cells", "assay_type": "cell-based", "conditions": "human, normalized to non-treated cells, read-out: Cell viability", "method": "(§1) Toxicity of cycled peptides A and B was analyzed on human dermal fibroblasts (HDFa) and adult human epidermal keratinocytes HEKa cells by MTT assay. A stock solution of the peptide was prepared in distilled water at 25 mg/mL. This stock solution was further diluted to obtain the final working concentrations (0.001, 0.005, 0.01, 0.05, 0.1 and 0.5 mg/mL) in the corresponding culture medium. Untreated cells were used as negative control samples (Basal).\n(§2) Briefly, HEKa and HDFa cells were seeded in 96-well plates at a concentration of 1×10^5 cells/mL in a final volume of 200 µL of medium (20,000 cells/well). HEKa cells were incubated in Dermal Cell Basal Medium supplemented with the Keratinocytes Growth Kit; and HDFa cells were cultured in Medium 106 supplemented with 2% of LSGS. Cells were incubated at 37°C, 5% CO2 and saturated humidity.\n(§3) After 24 h of incubation, cells were treated with different concentrations of each peptide (0.001, 0.005, 0.01, 0.05, 0.1 and 0.5 mg/mL) in triplicates, for MTT evaluation. After 24 h of treatment with the peptide, medium was completely removed, and 100 µL of 0.5 mg/mL MTT solution in supplemented medium were added to each well and cells were incubated at 37°C for 3 h. After incubating with MTT, the medium of each well was aspirated and 150 µL of DMSO were added in order to solubilise the formazan crystals formed. The plates were placed on a shaker for 5 minutes for complete solubilisation of the crystals and then the absorbance at 570 nm of each well was determined, using the microplate reader Multiskan FC, which is directly proportional to the number of living cells in culture.\n(§4) Absorbance values were normalized using the data obtained for non-treated cells (control), obtaining the % of viability shown in Tables 1 and 2. Each condition was performed in triplicate (n=3) in 3 independent experiments (N=3).\n(§5) Concentrations of peptide for which viability is above 80% are considered safe for efficacy testing. On the contrary, concentrations for which viability goes below 80% are considered potentially toxic and are not used for efficacy testing purposes. Table 1: Toxicity of cycled peptides on HDFa cells."}, "[2]": {"assay": "MTT assay, toxicity on HEKa cells", "assay_type": "cell-based", "conditions": "human, normalized to non-treated cells, read-out: Cell viability", "method": "as §1, §2, §3, §4, §5"}, "Caspase 3 (CASP3)": {"test_system": "Caspase 3 (CASP3)", "assay": "Caspase 3 activity under BFA-induced endoplasmic reticulum stress in HEKa (Caspase-Glo 3/7)", "assay_type": "cell-based, human", "conditions": "BFA-induced ER stress, 24 h, vs BFA-treated cells (Figure 5)", "method": "Caspase 3 (CASP3) is a protein member of the cysteine-aspartic acid protease family. Sequential activation of caspases plays a central role in the execution-phase of cell apoptosis. It was evaluated the effect of the cycled peptide B on the caspase 3 activity in human epidermal keratinocytes from adult (HEKa) subjected to endoplasmic reticulum (ER) stress.\nHEKa cells were seeded in a black 96-well plate at a density of 18.000 cell/well in Dermal Cell Basal Medium (DCBM) and incubated at 37 °C in a humidified atmosphere with 5% CO2. After 24 h of incubation, cells were treated with 0.15 µg/mL BFA alone or in the presence of 0.005 mg/mL of the cycled peptide B and returned to the incubator for 24 h more. Untreated cells (Basal) were used as negative control samples. 24 hours after treatment, caspase 3 activity was evaluated using Caspase-Glo® 3/7 Assay System, following manufacturer instructions.\nEach condition was performed at least in triplicates (n=3) in three independent experiments (N=3). For all data, mean values of relative fluorescence units (RFU) of the different experiments and SEM values are shown. All data was normalized as follows: % vs BFA = (RFU treated cells)/(RFU BFA treated cells) × 100 [formula]\nStatistical data analysis was performed using Student t-test by comparison of % activity from test substance vs BFA-treated cells, *p<0.05, **p<0.01, ***p<0.001."}, "MMP3 and MMP1": {"test_system": "MMP3 and MMP1", "assay": "qPCR expression of metalloproteases in HDFa", "assay_type": "cell-based, human", "conditions": "24 hours, 0.01 mg/mL, compared with linear form (Figure 6C)", "method": "HDFa cells were seeded in duplicate (n=2) in 12-well plates at a concentration of 200.000 cells/well in 106 Medium supplemented with 2% LSGS. Then, cells were incubated at 37 °C in a humidified atmosphere with 5% CO2. Next, cells were treated with cycled peptide B at different non-toxic concentrations for 6 or 24 hours. Untreated cells were used as basal control. Cells were then lysed, and replicates were pooled together for RNA extraction using Qiagen RNeasy Mini kit following manufacturer's instructions. Purified RNAs was then quantified by nanodrop, adjusted in concentration and processed for retrotranscription to cDNA using a commercially available kit (High-Capacity cDNA Reverse Transcription kit - Thermofisher Scientific, USA). Resulting cDNA was used to perform a RTqPCR using Taqman technology, and a panel of probes designed to target different type of collagens and their respective matrix metalloproteinases.\nMetalloproteases (MMP) are enzymes responsible of extracellular matrix degradation, also important in skin aging. The expression of MMP genes in HDFa cells was measured by qPCR after 24 hours of treatment with 0.01 mg/mL of peptide B and its linear form."}, "CALR": {"test_system": "CALR", "assay": "RT-qPCR expression of CALR gene in HEKa", "conditions": "0.01 mg/mL", "procedure": "HEKa cells were incubated in the presence of 0.01 mg/mL cycled peptide B for 24 hours and HDFa cells were treated with 0.05 mg/mL of cycled peptide B for 6 h. Then, cells were lysed, and RNA was extracted (RNeasy mini kit, Qiagen). Purified RNAs were retro-transcribed (High-capacity cDNA reverse transcription kit, Applied Biosystems). RT-qPCR was performed with the panel of TaqMan assay probes (Thermo Fisher Scientific) using StepOne plus Real time PCR instrument. […] The obtained data were analyzed using the ΔΔCt method, which provides the target gene expression values as fold changes in the treated sample compared with an untreated basal sample. Both samples were normalized with the relative expression of the housekeeping gene GAPDH.\nAdditionally, expression of CALR after treatment with 0.01 mg/mL of cycled peptides A and B for 24 hours in HEKa cells was analyze by qPCR as described in example 3."}}, "data": [{"compound": "CC(C)C[C@@H]1NC(=O)[C@H](C)NC(=O)[C@H](Cc2c[nH]cn2)NC(=O)[C@H](Cc2c[nH]c3ccccc23)NC(=O)[C@H](Cc2ccccc2)NC(=O)[C@H](CCCNC(=N)N)NC1=O", "note": "[Peptide B, cyclo-Phe-Trp- His- Ala-Leu-Arg]", "values": [{"measurement": "viability at 24 h", "setting": "[1]; 0.001 mg/mL peptide", "value": 100, "unit": "%"}, {"measurement": "viability at 24 h", "setting": "[1]; 0.005 mg/mL peptide", "value": 99.8, "unit": "%"}, {"measurement": "viability at 24 h", "setting": "[1]; 0.01 mg/mL peptide", "value": 92.9, "unit": "%"}, {"measurement": "viability at 24 h", "setting": "[1]; 0.05 mg/mL peptide", "value": 91.9, "unit": "%"}, {"measurement": "viability at 24 h", "setting": "[1]; 0.1 mg/mL peptide", "value": 88.2, "unit": "%"}, {"measurement": "viability at 24 h", "setting": "[1]; 0.5 mg/mL peptide", "value": 73.7, "unit": "%"}, {"measurement": "viability at 24 h", "setting": "[2]; 0.001 mg/mL peptide", "value": 102, "unit": "%"}, {"measurement": "viability at 24 h", "setting": "[2]; 0.005 mg/mL peptide", "value": 103, "unit": "%"}, {"measurement": "viability at 24 h", "setting": "[2]; 0.01 mg/mL peptide", "value": 107, "unit": "%"}, {"measurement": "viability at 24 h", "setting": "[2]; 0.05 mg/mL peptide", "value": 91.4, "unit": "%"}, {"measurement": "viability at 24 h", "setting": "[2]; 0.1 mg/mL peptide", "value": 85.8, "unit": "%"}, {"measurement": "viability at 24 h", "setting": "[2]; 0.5 mg/mL peptide", "value": 61.8, "unit": "%"}, {"measurement": "caspase 3 activity", "setting": "Caspase 3 (CASP3)", "value": "significantly reduce"}, {"measurement": "regulation of MMP3 and MMP1 expression", "setting": "MMP3 and MMP1", "value": "reduces the expression of enzymes involved in collagen degradation"}, {"measurement": "CALR expression, Effect", "setting": "CALR; 24 hours, qPCR (Table 5)", "value": "Upregulation"}, {"measurement": "CALR expression, Ratio", "setting": "CALR; 24 hours, qPCR (Table 5), Basal = 1.00", "value": 1.78}, {"measurement": "Fold change vs. Basal", "setting": "CALR; CALR, 24 h (Table 3)", "value": 2.67}, {"measurement": "Mean normalized expression", "setting": "CALR; CALR, 24 h, normalized to GAPDH", "value": "6.83E-01"}]}]}
